Laboratory results as given in article PMC9479156 (Frontiers in Pharmacology, 2022).

Legend:
[1] = system: asexual blood stage P. falciparum W2 (multidrug resistant); design: method as in Coertzen et al., 2018; Wong et al., 2019; details: ref Coertzen et al., 2018, Wong et al., 2019, cited from earlier work; for IC50: asexual blood stage, SYBR Green I, mean ± SEM
[2] = system: immature stage II-III P. falciparum NF54 gametocytes; design: method as in Coertzen et al., 2018, Wong et al., 2019; details: ref Coertzen et al., 2018, Wong et al., 2019, cited from earlier work; for IC50: NF54 gametocytes, luciferase, 48 h, mean ± SEM, read-out: Immature stage II-III (luc 48 h) IC50; for Fold change preference ratio EG to LG: immature vs late stage gametocytes
[3] = system: asexual blood stage P. falciparum NF54 (drug sensitive); design: method as in Coertzen et al., 2018; Wong et al., 2019; details: SYBR Green I, mean ± SEM, ref Coertzen et al., 2018, Wong et al., 2019; cited from earlier work
[4] = system: late stage IV-V P. falciparum NF54 gametocytes; design: method as in Coertzen et al., 2018, Wong et al., 2019; details: ref Coertzen et al., 2018, Wong et al., 2019, cited from earlier work; for IC50: NF54 gametocytes, luciferase, 72 h, mean ± SEM, read-out: Late stage IV-V (luc 72 h) IC50; for Fold change preference ratio LG to EG: late vs immature stage gametocytes
[5] = system: asexual blood stage P. falciparum K1 (multidrug resistant); details: ref Coertzen et al., 2018, Wong et al., 2019, cited from earlier work; for IC50: asexual blood stage, SYBR Green I, mean ± SEM
[6] = system: BEAS-2B non-tumorigenic human bronchial epithelium; assay: MTT cytotoxicity assay BEAS-2B; assay type: cell-based; details: MTT, 72 h, ± SD, read-out: IC50 BEAS-2B
Protocol: (§1) Proliferative and non-proliferative mammalian cell lines: human liver and lung cancer cell lines HepG2 and A549, and immortalized normal liver LO2 and lung BEAS-2B cells were purchased from ATCC (Manassas, VA, United States). Cells were cultured in RPMI-1640 medium supplemented with 10% fetal bovine serum and antibiotics penicillin (50 U/mL) and streptomycin (50 μg/ml; Invitrogen, United Kingdom). All cells were incubated at 37°C in a 5% humidified CO2 incubator.
(§2) All test compounds were dissolved in DMSO at a final concentration of 50 mM and stored at −20°C before use. Cytotoxicity was assessed with A549, HepG2, BEAS-2B and LO2 cells. The MTT assay with 3-(4,5-dimethylthiazole-2yl)-2,5-diphenyltetrazolium bromide (5 mg/ml) was performed as previously described ([Ng et al., 2022]). Briefly, 4 × 10^3 cells per well were seeded in 96-well plates before drug treatment. After overnight cell culture, the cells were exposed to different concentrations of selected compounds (0.19–100 μM) for 72 h. Cells without drug treatment were used as control. Next, 10 μl of the MTT solution was added to each well and incubated at 37°C for another 4 h. Solubilization buffer (100 μl) was then added (10 mM HCl in a solution of 10% of SDS) and incubated overnight. The absorbance A at 570 nm was measured on the next day. The percentage of cell viability was calculated using the following formula: Cell viability (%) = Atreated/Acontrol × 100. Dose response curves for all assays are given in the Supplementary Figures S3–S6.
(§3) Cytotoxicity was assessed for each of artemisinin, DHA and artemether, and the amino-artemisinins artemiside and artemisone, and celastrol against A549 human lung carcinoma, BEAS-2B non-tumorigenic human bronchial epithelium, HepG2 liver hepatocellular carcinoma and LO2 human normal hepatocytes using the MTT assay ([Ng et al., 2022]). Data are presented in Table 4, and dose response curves are given in the Supplementary Figures S3–S6.

[7] = system: LO2 human normal hepatocytes; assay: MTT cytotoxicity assay LO2; assay type: cell-based; details: Hepatocyte, MTT, 72 h, ± SD, read-out: IC50 LO2
Protocol: as §1, §2, §3

[8] = system: A549 human lung carcinoma; assay: MTT cytotoxicity assay A549; assay type: cell-based; details: for IC50: Homo sapiens, A549, MTT, 72 h, ± SD, read-out: IC50 A549
Protocol: as §1, §2, §3

[9] = system: HepG2 liver hepatocellular carcinoma; assay: MTT cytotoxicity assay HepG2; assay type: cell-based, human; details: for IC50: Homo sapiens, HepG2, MTT, 72 h, ± SD, read-out: IC50 HepG2; for SI, selectivity index IC50 normal cell line/IC50 tumour cell line: LO2/HepG2
Protocol: as §1, §2, §3

[10] = system: HepG2 liver hepatocellular carcinoma; assay: Cytotoxicity drug combination (isobole) assay HepG2; assay type: cell-based, human
Protocol: (§4) For the drug combination inhibitory assays, six drug preparations, of which four comprised combinations of either artemiside or artemisone with celastrol in a fixed ratio of 80:20, 60:40, 40:60, and 20:80 were prepared and screened against HepG2 liver hepatocellular carcinoma and LO2 human normal hepatocytes respectively. Two of these six preparations employed each of artemiside, artemisone or celastrol alone at a concentration approximately 5–7 times higher than the IC50 of the individual drug as presented in Table 4. […] Thus, six combinations for artemiside (µM) and celastrol (µM) prepared were 500:0, 400:4, 300:8, 200:12, 100:16, and 0:20, respectively.
(§5) As above for the malaria combination assays, a mean ΣFIC<1.0 represents a synergistic interaction, >1.3 represents an antagonistic interaction and ΣFIC = 1 represents an indifferent or additive interaction. Additivity, synergism and antagonism were also be established from the linear plots constructed from the FIC values of each of the drugs. A concave hyperbolic plot indicates synergism, a convex hyperbolic plot indicates an antagonistic interaction, and a straight line indicates an additive interaction. Isobole analysis of the combinations of each of artemiside and artemisone in combination with celastrol was performed against HepG2 and LO2 cells respectively. In Figure 5 is presented the isoboles for each drug combination.
(§6) Next, combinations of each of artemiside and artemisone with celastrol were examined, according to the method used to establish additivity/synergism described above. […] Against the normal hepatocyte LO2 cell line, whilst the interaction of artemisone with celastrol was synergistic, that of artemiside was additive. Synergism and additivity were also evident from the linear plots determined from the FIC values of each of the drugs (Table 5 and Figure 6). Thus, synergism is confirmed for combinations of the amino-artemisinins with celastrol against the HepG2 carcinoma cell line, and for artemisone-celastrol against human normal hepatocyte LO2.

[11] = system: LO2 human normal hepatocytes; assay: Cytotoxicity drug combination (isobole) assay LO2; assay type: cell-based
Protocol: as §4, §5, §6

C[C@H]1[C@H](OC(=O)CCC(=O)O)O[C@@H]2O[C@@]3(C)CC[C@H]4[C@H](C)CC[C@@H]1[C@@]24OO3 [Artesunate, artesunate]
IC50 [1]: 2.4 ± 0.4 nM | IC50 [2]: 62.8 ± 3 nM | IC50 [3]: 3 ± 0.29 nM | IC50 [4]: 259 ± 80 nM | IC50 [5]: 4 ± 1 nM

CO[C@H]1O[C@@H]2O[C@@]3(C)CC[C@H]4[C@H](C)CC[C@@H]([C@H]1C)[C@@]24OO3 [Artemether, artemether]
IC50 [1]: 7 ± 1 nM | RI = IC50 W2/IC50 NF54 [1]: 3.8 | IC50 [6]: > 100000 nM | IC50 [2]: 37.7 ± 2 nM | Fold change preference ratio EG to LG [2]: 3.6 | IC50 [7]: > 100000 nM | IC50 [8]: > 100000 nM | IC50 [3]: 1.86 ± 0.17 nM | IC50 [4]: 136 ± 85.9 nM | Fold change preference ratio LG to EG [4]: 0.28 | IC50 [9]: 1020 ± 200 nM | SI, selectivity index IC50 normal cell line/IC50 tumour cell line [9]: >98 | IC50 [5]: 9 ± 2 nM | RI (resistance index) = IC50 K1/IC50 NF54 [5]: 4.8

C[C@@H]1CC[C@H]2[C@@H](C)C(=O)O[C@@H]3O[C@@]4(C)CC[C@@H]1[C@]32OO4 [Artemisinin, artemisinin, reference compound]
IC50 [6]: > 100000 nM | IC50 [7]: > 100000 nM | IC50 [8]: > 100000 nM | IC50 [9]: > 100000 nM

C[C@@H]1CC[C@H]2[C@@H](C)C(O)O[C@@H]3O[C@@]4(C)CC[C@@H]1[C@]32OO4 (stereo partly drawn) [DHA]
IC50 [1]: 1.74 ± 0.22 nM | RI = IC50 W2/IC50 NF54 [1]: 0.7 | IC50 [6]: 21200 ± 1400 nM | IC50 [2]: 43 ± 3.9 nM | Fold change preference ratio EG to LG [2]: 0.78 | IC50 [7]: 30700 ± 2200 nM | IC50 [8]: 62600 ± 3400 nM | IC50 [3]: 2.51 ± 0.19 nM | IC50 [4]: 33.7 ± 1.98 nM | Fold change preference ratio LG to EG [4]: 1.3 | IC50 [9]: > 100000 nM | IC50 [5]: 1.51 ± 0.33 nM | RI (resistance index) = IC50 K1/IC50 NF54 [5]: 0.6

C[C@H]1[C@H](N2CCSCC2)O[C@@H]2O[C@@]3(C)CC[C@H]4[C@H](C)CC[C@@H]1[C@@]24OO3 [Artemiside, artemiside]
FIC ([10]; artemiside:celastrol drug ratio 20:80, HepG2): 0.16 | FIC ([10]; artemiside:celastrol drug ratio 40:60, HepG2): 0.42 | FIC ([10]; artemiside:celastrol drug ratio 60:40, HepG2): 0.4 | FIC ([10]; artemiside:celastrol drug ratio 80:20, HepG2): 0.57 | IC50 [1]: 1.75 ± 0.27 nM | RI = IC50 W2/IC50 NF54 [1]: 1.58 | IC50 [6]: 32100 ± 2700 nM | IC50 [2]: 16.4 ± 1 nM | Fold change preference ratio EG to LG [2]: 0.09 | IC50 [7]: > 100000 nM | SI, selectivity index IC50 normal cell line/IC50 tumour cell line ([8]; BEAS-2B/A549): <0.3 | IC50 [8]: > 100000 nM | IC50 [3]: 1.11 ± 0.17 nM | IC50 [4]: 1.5 ± 0.5 nM | Fold change preference ratio LG to EG [4]: 10.9 | FIC ([11]; artemiside:celastrol drug ratio 20:80, LO2): 0.09 | FIC ([11]; artemiside:celastrol drug ratio 40:60, LO2): 0.33 | FIC ([11]; artemiside:celastrol drug ratio 60:40, LO2): 0.45 | FIC ([11]; artemiside:celastrol drug ratio 80:20, LO2): 0.59 | IC50 [9]: 550 ± 20 nM | SI, selectivity index IC50 normal cell line/IC50 tumour cell line [9]: >183 | SI, selectivity index IC50 normal cell line/IC50 tumour cell line ([9]; listed as artemiside): > 170 | IC50 [5]: 1.6 ± 0.4 nM | RI (resistance index) = IC50 K1/IC50 NF54 [5]: 1.47
